{"source": "patent US20260273028A1", "about": "“PEROXIDASE COMPOSITIONS CONTAINING IMPROVED ENHANCING AGENTS” (FLEN HEALTH PHARMA NV, priority 2022, published 2026)", "key": {"S. aureus (ATCC®6538™)": {"tested_on": "S. aureus (ATCC®6538™)", "assay": "Microbial challenge testing in alginogel with GOX+LPO", "format": "cell-based", "conditions": "for antimicrobial activity of enhancing candidate only against S. aureus: alginogel without enzymes, highest concentration tested; for reduction in absolute S. aureus counts compared to reference (enzymes only): alginogel, 0.0075% GOX+LPO", "description": "(§1) To determine the ability of an antimicrobial agent to elicit an antimicrobial preserving efficacy in a gel environment, a microbiological challenge test can be performed. Here, the antimicrobial agent is a combination of the natural enzymes GOX+LPO. […] Microbial challenge testing was performed according to the method described in the European Pharmacopoeia current version chapter 5.1.3 ‘Efficacy of antimicrobial preservation’, but with adapted time points (0, 10, 20, 30, 40, 50, 60, 70 and 80 min instead of 0, 2, 7, 14 and 28 days). In brief, for every enhancing agent to be evaluated, a lab-scale alginogel (based on the Flaminal® formulation, but without the original enhancer guaiacol) including 0.0075% GOX+LPO (1:1) was prepared according to standard practices. Enhancing agents were added to the alginogel in a final concentration ranging from 0.01 to 0,00025% (v/w). As a reference, an alginogel including 0.0075% GOX+LPO (1:1) without the addition of any enhancing agent was included (designated as: enzymes only). As a control, an alginogel without both GOX+LPO (1:1) enzyme solution and enhancing agent (designated as: empty gel) as well as an alginogel only containing the enhancing agent only (designated as: enhancing candidate only) were included. After preparation, a homogenous sample of 10 g was transferred into a 50 ml conical tube for each alginogel to be evaluated and microorganism to be tested. For each test microorganism, including S. aureus (ATCC®6538™), P. aeruginosa (ATCC®9027™), C. albicans (ATCC®10231™) and A. niger (ATCC®16404 ™), a microbial suspension of about 10^8 CFU/ml was prepared in sterile diluent (buffered sodium chloride-peptone solution). Then, the 50 ml conical tubes containing the alginogel samples to be evaluated were inoculated with 100 μl of the designated inoculum. At the start (time point 0) and after 0, 10, 20, 30, 40, 50, 60, 70 and 80 min, the number of viable microorganisms per gram product (expressed as CFU/g) was determined by transferring a sample of 0.5 g of the product into a 15 ml conical tube containing 4.5 ml of sterile diluent and applying general dilution and plate count techniques. For each combination evaluated, this test was repeated at least 1-3 times. The collected data were further analyzed in MS Excel. Mean absolute counts (expressed as log CFU/g) were visualized in a graph.\nThe purpose of the hereby described experiment was to compare the efficacy of antimicrobial activity enhancement of the GOX+LPO (1:1) enzyme combination by ethanolamine and proline in a microbial challenge test using S. aureus. The test was set up as described in the section on ‘challenge testing’ in Example 2.4. The test was repeated at least 3 times.\nThe purpose of the hereby described experiment was to compare the efficacy of antimicrobial activity of the GOX+LPO (1:1) enzyme combination in the presence of potassium chloride/potassium bromide and potassium iodide. A microbial challenge test using S. aureus was performed. The test was set up as described in the section on ‘challenge testing’ in Example 2.4."}, "[1]": {"tested_on": "Pseudomonas aeruginosa ATCC®9027™", "assay": "Absolute microbial counts in function of enzyme solution concentration", "format": "cell-based", "conditions": "for reduction in absolute P. aeruginosa counts compared to reference and guaiacol solution: 0.005%-0.0000391% (v/v) GOX+LPO", "excerpt": "(§2) Absolute microbial counts in function of concentration of the antimicrobial agent tested are useful to monitor the bactericidal and fungicidal efficacy of that agent.\n(§3) To determine the absolute number of live microorganisms in function of different enzyme solution concentrations tested, a classical broth microdilution assay combined with standard CFU enumeration techniques was used to determine the susceptibility of a series of microbes commonly detected in infected wounds, including (a) the Gram-positive bacterium Staphylococcus aureus ATCC® 6538™ (results shown below), (b) the Gram-negative bacterium Pseudomonas aeruginosa ATCC®9027™ (results shown below), (c) the yeast Candida albicans ATCC®10231™ (results shown below), and (d) the fungus Aspergillus niger ATCC®16404™ (results shown below). In brief, the broth microdilution assay was set up as previously described (see 2.1). After incubation, the absolute microbial count at the MIC and following higher concentrations (MICx2, MICx4, and so on) was determined using standard CFU enumeration techniques. For each combination evaluated, this test was repeated at least 5 times. The collected data were further analyzed in MS Excel and expressed as log CFU/ml. Mean results were plotted in function of enzyme solution concentration."}, "[2]": {"tested_on": "Aspergillus niger ATCC®16404™", "assay": "Absolute microbial counts in function of enzyme solution concentration", "format": "cell-based", "conditions": "0.005%-0.000156% (v/v) GOX+LPO", "excerpt": "as §2, §3"}, "[3]": {"conditions": "exemplary values; cited from earlier work"}, "[4]": {"tested_on": "Pseudomonas aeruginosa ATCC®9027™", "assay": "MBC determination, broth microdilution with CFU enumeration", "format": "cell-based", "conditions": "P. aeruginosa", "description": "(§4) The minimal bactericidal concentration (MBC) is defined as the lowest concentration of an antimicrobial agent that results in a complete killing of the microbial population (determined via standard CFU enumeration techniques) after overnight incubation. This endpoint measurement is used, together with the MIC (see above), to define the microbial susceptibility towards an antimicrobial agent. Here, the antimicrobial agent is a combination of the natural enzymes GOX+LPO.\n(§5) To determine the MBC of the described combinations, a classical broth microdilution assay combined with standard CFU enumeration techniques was used to determine the susceptibility of a series of microbes commonly detected in infected wounds, including (a) the Gram-positive bacterium Staphylococcus aureus ATCC® 6538™ (results shown below), (b) the Gram-negative bacterium Pseudomonas aeruginosa ATCC®9027™ (results shown below), (c) the yeast Candida albicans ATCC®10231™ (results shown below), and (d) the fungus Aspergillus niger ATCC®16404™ (results shown below). In brief, the broth microdilution assay was set up as previously described (see 2.1). After incubation, the MBC was determined by investigating the presence of viable microorganisms at the MIC and following higher concentrations (MICx2, MICx4, and so on) using standard CFU enumeration techniques. For each combination evaluated, this test was repeated at least 5 times. The collected data were further analyzed in MS Excel. Mean concentration data (expressed as log CFU/ml) were visualized in a table format in which the MBC was highlighted."}, "[5]": {"tested_on": "Aspergillus niger ATCC®16404™", "assay": "MBC determination, broth microdilution with CFU enumeration", "format": "cell-based", "conditions": "A. niger", "description": "as §4, §5"}, "[6]": {"tested_on": "P. aeruginosa (ATCC®9027™)", "assay": "Microbial challenge testing in alginogel with GOX+LPO", "format": "cell-based", "conditions": "for antimicrobial activity of enhancing candidate only against P. aeruginosa: alginogel without enzymes, highest concentration tested; for reduction in absolute P. aeruginosa counts compared to reference (enzymes only): alginogel, 0.0075% GOX+LPO", "description": "as §1"}, "[7]": {"conditions": "alginogel with GOX+LPO, enhancer 0.0005%"}}, "data": [{"molecule": "N[C@@H](CO)C(=O)O", "note": "[Serine, serine]", "values": [{"measurement": "reduction in absolute S. aureus counts compared to guaiacol in the same concentration", "setting": "S. aureus (ATCC®6538™); [7]", "result": "faster complete reduction"}, {"measurement": "antimicrobial activity of enhancing candidate only against S. aureus", "setting": "S. aureus (ATCC®6538™)", "result": "no antimicrobial activity"}, {"measurement": "reduction in absolute S. aureus counts compared to reference (enzymes only)", "setting": "S. aureus (ATCC®6538™); enhancer 0.00125-0.0005%", "result": "faster complete reduction"}, {"measurement": "reduction in absolute S. aureus counts compared to reference (enzymes only)", "setting": "S. aureus (ATCC®6538™); enhancer 0.0025%", "result": "immediate entire reduction"}, {"measurement": "reduction in absolute P. aeruginosa counts compared to reference and guaiacol solution", "setting": "[1]; enhancer 0.0025-0.00125%", "result": "stronger reduction"}, {"measurement": "reduction in absolute P. aeruginosa counts compared to reference and guaiacol solution", "setting": "[1]; enhancer 0.01-0.005%", "result": "stronger reduction"}, {"measurement": "reduction in absolute A. niger counts compared to reference", "setting": "[2]; enhancer 1-0.01%", "result": "stronger reduction"}, {"measurement": "LogP (octanol/water partition coefficient)", "setting": "[3]", "result": "LogP = −3.07"}, {"measurement": "MBC: GOX+LPO enzyme solution needed", "setting": "[4]; enhancer 0.0025-0.00125%", "result": "0.000625 % (v/v)"}, {"measurement": "increase in MBC compared to reference or guaiacol solution", "setting": "[4]; enhancer 0.0025-0.00125%", "result": 2, "unit": "×"}, {"measurement": "MBC: GOX+LPO enzyme solution needed", "setting": "[4]; enhancer 0.01-0.005%", "result": "0.000625 % (v/v)"}, {"measurement": "increase in MBC compared to reference or guaiacol solution", "setting": "[4]; enhancer 0.01-0.005%", "result": 2, "unit": "×"}, {"measurement": "MBC: GOX+LPO enzyme solution needed", "setting": "[5]; enhancer 1%-0.01%", "result": "0.000156 % (v/v)"}, {"measurement": "increase in MBC compared to reference", "setting": "[5]; enhancer 1%-0.01%", "result": 2, "unit": "×"}, {"measurement": "reduction in absolute P. aeruginosa counts compared to guaiacol in the same concentration", "setting": "[6]; [7]", "result": "faster complete reduction"}, {"measurement": "antimicrobial activity of enhancing candidate only against P. aeruginosa", "setting": "[6]", "result": "no antimicrobial activity"}, {"measurement": "reduction in absolute P. aeruginosa counts compared to reference (enzymes only)", "setting": "[6]; enhancer 0.00125-0.0005%", "result": "faster complete reduction"}, {"measurement": "reduction in absolute P. aeruginosa counts compared to reference (enzymes only)", "setting": "[6]; enhancer 0.0025%", "result": "immediate entire reduction"}]}, {"molecule": "NC(=O)C[C@H](N)C(=O)O", "note": "[Asparagine, asparagine]", "values": [{"measurement": "antimicrobial activity of enhancing candidate only against S. aureus", "setting": "S. aureus (ATCC®6538™)", "result": "no antimicrobial activity"}, {"measurement": "reduction in absolute S. aureus counts compared to reference (enzymes only)", "setting": "S. aureus (ATCC®6538™); enhancer 0.0025%", "result": "immediate entire reduction"}, {"measurement": "reduction in absolute S. aureus counts compared to reference (enzymes only)", "setting": "S. aureus (ATCC®6538™); enhancer 0,00125%", "result": "faster complete reduction"}, {"measurement": "reduction in absolute P. aeruginosa counts compared to reference", "setting": "[1]; enhancer 0,1%, 0,005%-0.000625% (v/v) GOX+LPO", "result": "stronger reduction"}, {"measurement": "reduction in absolute P. aeruginosa counts compared to reference", "setting": "[1]; enhancer 1%, 0,005%-0.000156% (v/v) GOX+LPO", "result": "stronger reduction"}, {"measurement": "reduction in absolute A. niger counts compared to reference", "setting": "[2]; enhancer 1-0.05%", "result": "stronger reduction"}, {"measurement": "LogP (octanol/water partition coefficient)", "setting": "[3]", "result": "LogP = −3.82"}, {"measurement": "MBC: GOX+LPO enzyme solution needed", "setting": "[4]; enhancer 0,1%", "result": "0.000625 % (v/v)"}, {"measurement": "increase in MBC compared to reference", "setting": "[4]; enhancer 0,1%", "result": 2, "unit": "×"}, {"measurement": "MBC: GOX+LPO enzyme solution needed", "setting": "[4]; enhancer 1%", "result": "0.000156 % (v/v)"}, {"measurement": "increase in MBC compared to reference", "setting": "[4]; enhancer 1%", "result": 8, "unit": "×"}, {"measurement": "MBC: GOX+LPO enzyme solution needed", "setting": "[5]; enhancer 1%-0.05%", "result": "0.000156 % (v/v)"}, {"measurement": "increase in MBC compared to reference", "setting": "[5]; enhancer 1%-0.05%", "result": 2, "unit": "×"}, {"measurement": "antimicrobial activity of enhancing candidate only against P. aeruginosa", "setting": "[6]", "result": "no antimicrobial activity"}, {"measurement": "reduction in absolute P. aeruginosa counts compared to reference (enzymes only)", "setting": "[6]; enhancer 0.0025%", "result": "immediate entire reduction"}, {"measurement": "reduction in absolute P. aeruginosa counts compared to reference (enzymes only)", "setting": "[6]; enhancer 0,00125%", "result": "faster complete reduction"}]}]}
